According to ChEMBL document CHEMBL1201862, “PubChem BioAssay data set” (2004):
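1) Cells in 96-well plates. 2) Compound, 48 h, 5 concentrations. 3) Linear interpolation between surrounding doses. 4) Unreached endpoint = highest concentration. GI50 is the concentration that inhibits growth by half.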 Calls of active or inactive are those of the source. Rule as the data show it: active = GI50 up to about 1.1 µM and inactive = higher.

What was measured:
Assay in all cases: NCI tumour cell line growth inhibition, 48 h
A549 = test system: A549
COLO 205 = test system: COLO 205
DU-145 = test system: DU-145
HL-60 = test system: HL-60
KM12 = test system: KM12
M14 = test system: M14
MCF7 = test system: MCF7
MOLT-4 = test system: MOLT-4
NCI/ADR-RES = test system: NCI/ADR-RES
OVCAR-3 = test system: OVCAR-3
OVCAR-5 = test system: OVCAR-5
SF-539 = test system: SF-539
SN12C = test system: SN12C
SR = test system: SR
TK-10 = test system: TK-10
UO-31 = test system: UO-31

Row | Structure (SMILES) | GI50 (A549) | GI50 (COLO 205) | GI50 (DU-145) | GI50 (HL-60) | GI50 (KM12) | GI50 (M14) | GI50 (MCF7) | GI50 (MOLT-4) | GI50 (NCI/ADR-RES) | GI50 (OVCAR-3) | GI50 (OVCAR-5) | GI50 (SF-539) | GI50 (SN12C) | GI50 (SR) | GI50 (TK-10) | GI50 (UO-31)
1 | COc1ccc(NC/C=C/C(=C/COC(C)=O)OC(C)=O)cc1 | 15.3 µM (inactive) | 1.88 µM (inactive) | 3.11 µM (inactive) | 2.27 µM (inactive) | 0.448 µM (active) | 1.73 µM (inactive) | 2.63 µM (inactive) | 4.75 µM (inactive) | 2.59 µM (inactive) | 2 µM (inactive) | 1.75 µM (inactive) | 2 µM (inactive) | 2.12 µM (inactive) | 0.514 µM (active) | 1.87 µM (inactive) | 12.3 µM (inactive)
2 | C=CC1(CBr)CCC(C(C)(C)Br)O1 (configuration not stated) | 17.3 µM (inactive) | 5.43 µM (inactive) | 10 µM (inactive) | 0.832 µM (active) | 12.2 µM (inactive) | 13.1 µM (inactive) | 15.6 µM (inactive) | 2.21 µM (inactive) | 10.1 µM (inactive) | 9.42 µM (inactive) | 14.7 µM (inactive) | 16.9 µM (inactive) | 16.6 µM (inactive) | 2.52 µM (inactive) | 15.1 µM (inactive) | 12.7 µM (inactive)
3 | CCN(CC)CCC(=O)c1ccc(Cl)c(Cl)c1 | > 100 µM (inactive) | 27.2 µM (inactive) | 67.1 µM (inactive) | 32.3 µM (inactive) | 34.6 µM (inactive) | 42.3 µM (inactive) | 12.8 µM (inactive) | 19.9 µM (inactive) | 34.1 µM (inactive) | > 10 µM (inactive) | > 100 µM (inactive) | > 10 µM (inactive) | 39.3 µM (inactive) | 24.3 µM (inactive) | > 10 µM (inactive) | 41.3 µM (inactive)
4 | c1csc(-c2cscc2-c2ccsc2)c1 | 47.9 µM (inactive) | > 100 µM (inactive) | > 100 µM (inactive) | 30.5 µM (inactive) | 32.1 µM (inactive) | 54.1 µM (inactive) | 30.6 µM (inactive) | 26.2 µM (inactive) | 48.1 µM (inactive) | 18.4 µM (inactive) | > 69.2 µM (inactive) | > 53.2 µM (inactive) | > 86.1 µM (inactive) | 26.6 µM (inactive) | > 100 µM (inactive) | > 70.8 µM (inactive)
5 | CCOC1=NC(C(F)(F)F)(C(F)(F)F)N=C(N2CCCCC2)O1 | > 100 µM (inactive) | > 100 µM (inactive) | > 100 µM (inactive) | 29.3 µM (inactive) | > 100 µM (inactive) | > 100 µM (inactive) | > 100 µM (inactive) | > 100 µM (inactive) | > 100 µM (inactive) | > 100 µM (inactive) | > 100 µM (inactive) | > 100 µM (inactive) | > 100 µM (inactive) | 59 µM (inactive) | > 100 µM (inactive) | > 100 µM (inactive)
6 | O=C1C(Cl)=C(NCCO)C(=O)c2c(O)ccc(O)c21 | 1.87 µM (inactive) | 1.74 µM (inactive) | 2.36 µM (inactive) | 2.6 µM (inactive) | 2.05 µM (inactive) | 2.16 µM (inactive) | 1.93 µM (inactive) | 3.33 µM (inactive) | 5.18 µM (inactive) | 2.76 µM (inactive) | 2.37 µM (inactive) | 2.52 µM (inactive) | 2.56 µM (inactive) | 2.41 µM (inactive) | > 10 µM (inactive) | 6.7 µM (inactive)
7 | COc1c(-c2nc3ccc(N4CCN(C)CC4)cc3[nH]2)cc(OC)c2[nH]c(CO)nc12 | > 100 µM (inactive) | 82.4 µM (inactive) | 84.5 µM (inactive) | 14.1 µM (inactive) | 49.3 µM (inactive) | > 100 µM (inactive) | 54.3 µM (inactive) | > 100 µM (inactive) | > 100 µM (inactive) | > 100 µM (inactive) | > 100 µM (inactive) | > 100 µM (inactive) | 74.6 µM (inactive) | > 100 µM (inactive) | > 100 µM (inactive) | > 100 µM (inactive)
8 | CC12CC3(O)OC(O1)C1(COC(=O)c4ccccc4)C3CC21OC1OC(CO)C(O)C(O)C1O (configuration not stated) | > 100 µM (inactive) | > 100 µM (inactive) | > 100 µM (inactive) | > 100 µM (inactive) | > 100 µM (inactive) | > 100 µM (inactive) | > 100 µM (inactive) | > 100 µM (inactive) | > 100 µM (inactive) | > 100 µM (inactive) | > 100 µM (inactive) | > 100 µM (inactive) | > 100 µM (inactive) | > 100 µM (inactive) | > 100 µM (inactive) | > 100 µM (inactive)
9 | C[N+](C)(C)[BH-](Br)C(O)O (configuration not stated) | > 100 µM (inactive) | > 100 µM (inactive) | > 100 µM (inactive) | > 100 µM (inactive) | > 100 µM (inactive) | > 100 µM (inactive) | > 100 µM (inactive) | > 100 µM (inactive) | > 100 µM (inactive) | > 100 µM (inactive) | > 100 µM (inactive) | > 100 µM (inactive) | > 100 µM (inactive) | > 100 µM (inactive) | > 100 µM (inactive) | > 100 µM (inactive)
10 | CN(Cc1ccccc1)Cn1ccnc1 | > 100 µM (inactive) | 33.5 µM (inactive) | > 100 µM (inactive) | > 38.5 µM (inactive) | > 100 µM (inactive) | 20.5 µM (inactive) | 41 µM (inactive) | 46.5 µM (inactive) | > 100 µM (inactive) | > 100 µM (inactive) | > 100 µM (inactive) | > 100 µM (inactive) | 95.1 µM (inactive) | 26.2 µM (inactive) | > 100 µM (inactive) | 54.7 µM (inactive)
11 | CCOC(=O)c1nc2ccccc2nc1Oc1cc(OC)cc(OC)c1 | > 100 µM (inactive) | 81.5 µM (inactive) | > 100 µM (inactive) | 8.41 µM (inactive) | 76.9 µM (inactive) | > 100 µM (inactive) | > 100 µM (inactive) | > 100 µM (inactive) | > 100 µM (inactive) | > 100 µM (inactive) | > 100 µM (inactive) | 61.7 µM (inactive) | > 100 µM (inactive) | > 100 µM (inactive) | > 100 µM (inactive) | > 100 µM (inactive)
12 | COc1cc(S(=O)(=O)Nc2nc(-c3ccc(/N=C/c4cccs4)cc3)cs2)ccc1Cl | > 100 µM (inactive) | > 100 µM (inactive) | > 100 µM (inactive) | 33.9 µM (inactive) | 67.1 µM (inactive) | > 100 µM (inactive) | 36.6 µM (inactive) | 27.5 µM (inactive) | > 100 µM (inactive) | 27.5 µM (inactive) | > 100 µM (inactive) | 34 µM (inactive) | 28.8 µM (inactive) | 21.7 µM (inactive) | > 100 µM (inactive) | 58.6 µM (inactive)
13 | c1ccc2c(OCC3CO3)ccc(OCC3CO3)c2c1 (configuration not stated) | 4.32 µM (inactive) | 10.6 µM (inactive) | 2.36 µM (inactive) | 0.321 µM (active) | 4.14 µM (inactive) | 3.38 µM (inactive) | 0.897 µM (active) | 0.352 µM (active) | 4.18 µM (inactive) | 1.38 µM (inactive) | 11.2 µM (inactive) | 2.21 µM (inactive) | 2.22 µM (inactive) | 0.343 µM (active) | 13.5 µM (inactive) | 1.61 µM (inactive)
14 | Cc1ccc2c3ccc4c(c3n(C)c2c1)C(=O)C=CC4=O | > 10 µM (inactive) | 2.5 µM (inactive) | > 10 µM (inactive) | 1.04 µM (active) | > 10 µM (inactive) | 3.66 µM (inactive) | 3.29 µM (inactive) | 0.475 µM (active) | > 5.89 µM (inactive) | 2.52 µM (inactive) | > 10 µM (inactive) | > 5.98 µM (inactive) | > 10 µM (inactive) | 1.42 µM (inactive) | 4.82 µM (inactive) | > 10 µM (inactive)
15 | O=C(O)CNC(=O)CO/N=C1/C(=C2/C(=O)Nc3ccccc32)Nc2ccccc21 | 86.5 µM (inactive) | 46.2 µM (inactive) | > 100 µM (inactive) | 57.9 µM (inactive) | 4.9 µM (inactive) | > 100 µM (inactive) | 72.4 µM (inactive) | 70.3 µM (inactive) | > 100 µM (inactive) | 42.2 µM (inactive) | > 100 µM (inactive) | > 100 µM (inactive) | > 100 µM (inactive) | 38.5 µM (inactive) | > 100 µM (inactive) | 26.5 µM (inactive)
16 | OCC1OC(n2cnc3c(SCc4ccccc4)ncnc32)C(O)C1O (configuration not stated) | 26.3 µM (inactive) | 14 µM (inactive) | 5.35 µM (inactive) | 1.21 µM (inactive) | > 100 µM (inactive) | 99.3 µM (inactive) | 3.08 µM (inactive) | 0.773 µM (active) | 10.2 µM (inactive) | 6.61 µM (inactive) | > 96.2 µM (inactive) | > 100 µM (inactive) | 7.5 µM (inactive) | 2.9 µM (inactive) | > 21.8 µM (inactive) | 23 µM (inactive)
17 | O=C1c2ccccc2C(=O)N1CCc1nc(-c2ccccc2)c[nH]1 | > 100 µM (inactive) | > 100 µM (inactive) | > 100 µM (inactive) | > 100 µM (inactive) | > 100 µM (inactive) | > 100 µM (inactive) | > 100 µM (inactive) | > 100 µM (inactive) | > 100 µM (inactive) | > 100 µM (inactive) | > 100 µM (inactive) | > 100 µM (inactive) | > 100 µM (inactive) | > 100 µM (inactive) | > 100 µM (inactive) | > 100 µM (inactive)
